Measurements reported in PubChem BioAssay (NCI).
“And” between values parts separate entries of the source, which are not always exact repeats. Identical values can stand only once.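 Each compound was tested at five concentrations against cells in 96-well plates for 48 hours. GI50 = concentration required for 50% inhibition of growth. TGI is the concentration that stops growth completely.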

Experiments:
Test in all cases: inhibition of tumour cell growth, NCI panel, 48 h
[1] = system: NCI/ADR-RES ovarian
[2] = system: PC-3 prostate
[3] = system: HS 578T breast
[4] = system: BT-549 breast

| Compound | GI50 [1] | TGI [1] [µM] | GI50 [2] | TGI [2] [µM] | GI50 [3] | TGI [3] | GI50 [4] | TGI [4] [µM] |
| --- | --- | --- | --- | --- | --- | --- | --- | --- |
| Cc1cc(N2CCCC2)nc(N(CCCNc2ccnc3cc(Cl)ccc23)Cc2ccc3c(c2)OCO3)n1 | 1.43 µM | 3.92 | 1.47 µM | 12 | 1.74 µM | 4.21 µM | – | – |
| Nc1nc(Nc2cccc(F)c2)nc2ccccc12 | 26.7 µM | 94.3 | 31 µM | > 100 | 20 µM | 58 µM | 30.2 µM | > 100 |
| N#CC1C(N)=NNC12Nc1ccccc1N2 (stereo not given) | 24.5 µM | 74.5 | 22.2 µM | > 100 | 4.8 µM | 25.7 µM | 6.55 µM | 31.6 |
| CC(=O)OC1C2(CC3N4C(=O)C5(CO)SSC4(CC31O)C(=O)N5C)OC(C)C(C)(C)C2=O (stereo not given) | < 0.042 µM | 0.879 | 0.148 µM | 0.588 | 0.0449 µM | 0.213 µM | 0.146 µM | 0.728 |
| CC(C)OC(=O)c1ccc2[nH]c(O)c(C(=Nc3ccc(N(C)C(=O)CN4CCN(C)CC4)cc3)c3ccccc3)c2c1 | – | – | 0.494 µM | 2.17 | 0.0994 µM | 1.15 µM | 1.28 µM | 2.68 |
| Cc1ccc2c(c1)ncn2-c1ncnc2c1CC(C)c1ccccc1N2C (stereo not given) | 0.058 µM | 30.4 | 0.0561 µM | 17.7 | 0.104 µM | 51 µM | 0.314 µM | 8.25 |
| CCCCCc1c(C)[nH]c(/C=C2\N=C(c3ccc[nH]3)C=C2Oc2ccc(Cl)cc2)c1C | 0.377 µM and 0.387 µM | 18.8 | 0.115 µM and 0.0236 µM | 7.22 | 0.126 µM and 0.0271 µM | 0.65 µM and 0.4 µM | 0.222 µM and 0.352 µM | 19.7 |
| CCCCC[C@H]1C/C=C2/C(=O)C(Cl)=C[C@@H]2C/C=C\CCCC(=O)O[C@@H](CCCCC)C/C=C2/C(=O)C(Cl)=C[C@@H]2C/C=C\CCCC(=O)O1 | 2.44 µM | 9.46 | 0.368 µM | 1.08 | 0.709 µM | 16.7 µM | 0.33 µM | 0.836 |
| S=c1ssc(Sc2ccccn2)c1Cl | 13.9 µM | 26.8 | 11.9 µM | 24.2 | – | – | – | – |
| Cn1cc(-c2ccc3c(c2)CCN3C(=O)Cc2cccc(C(F)(F)F)c2)c2c(N)ncnc21 | 4.64 µM | 38.8 | 4.86 µM | 28.7 | 2.76 µM | 19.1 µM | 1.82 µM | 12.4 |
| CCc1c2c(nc3cccc(N)c13)-c1cc3c(c(=O)n1C2)COC(=O)[C@]3(O)CC | 0.0164 µM | > 100 | 0.349 µM | > 100 | – | > 100 µM | 0.00656 µM | 0.0218 |
| CCc1c[nH]c2ncnc(N3CC[C@@](N)(CNC(=O)c4ccc(F)cc4F)C3)c12 | 83.9 µM | > 100 | 35.4 µM | > 100 | 18.2 µM | 75.2 µM | 17 µM | 55.3 |
| COc1cc(/C=C(/c2ccccc2)[N+](=O)[O-])c(OC)c2c1OCO2 | 2.43 µM | 7.37 | 1.71 µM | 3.59 | 2.99 µM | 14.9 µM | 1.66 µM | 3.23 |
| O=c1oc2ccc(Cl)cc2c(=O)n1-c1ccc(I)cc1F | 0.3 µM | 2.87 | 0.924 µM | 6.92 | 0.161 µM | 1.11 µM | 0.168 µM | 1 |
| COc1ccc(-c2ccc(/C=N/n3c(COc4ccc(Cl)cc4)n[nH]c3=S)o2)c([N+](=O)[O-])c1 | 15.8 µM | 50 | 12.2 µM | 35.9 | 47.7 µM | > 100 µM | 13.6 µM | 50 |
| Cn1cc(-c2ccc(CNc3cc(-c4cnc5cc(OCCCN6CCCC6)ccn45)ncn3)cc2)cn1 | 5.11 µM | > 100 | 3.63 µM | > 100 | 3.52 µM | 26.2 µM | 12.6 µM | 27.2 |
| Cc1cn2c(/C=N/N/C(N)=N\N)c(-c3ccc(Cl)c([N+](=O)[O-])c3)nc2s1 | 15.7 µM | 46.8 | 9.95 µM | 24.8 | 1.1 µM | 2.39 µM | 1.12 µM | 2.36 |
| C[C@H](CS(C)(=O)=O)Nc1ncc2cc(Oc3ccc(F)cc3F)c(=O)n(C)c2n1 | > 25 µM | > 25 | > 25 µM | > 25 | > 25 µM | > 25 µM | > 25 µM | > 25 |
